Source: US6541002B1, “Compositions and methods for providing a protein to a virion” (Thomas Jefferson University, priority 1998, dated 2003)
No end group written: not given here.

These substances were tested against HIV-1 Vpr (Human immunodeficiency virus type 1 group M subtype B, UniProt P12520). Settings: heptapeptide fused to Gal4AD, co-expressed with Vpr-Gal4 DNA-binding domain chimera.
Excerpt: DNA fragments encoding the variable heptapeptide region of the coat protein of individual phage isoforms selected from the library described herein were amplified using PCR from purified phage DNA. Amplified peptide-encoding DNA was cloned in frame between the EcoRI and BglII restriction endonuclease sites of pGADGH for use in yeast two-hybrid system experiments.
The yeast reporter strain, HF7c, which comprises two Gal4-inducible reporter genes, namely HIS3 and LacZ, has been described (BouHamdan et al., 1996, J. Virol. 70:697-704). HF7c cells were transformed with two plasmids, pGB-UDG and pGA-Vpr, using known methods to yield double transformant HF7c cells. […] Cells obtained from these plates were used in a liquid culture assay with yeast reporter strain SFY526 to detect beta-galactosidase activity, as described (BouHamdan et al., 1996, J. Virol. 70:697-704; Bartel et al., 1993, Biotech. 14:920-924). […] was used as the substrate in the assay, and each assay was performed in triplicate.
Intracellular interaction of ten of the heptapeptide regions listed in Table 2 with HIV-1 Vpr was further tested using the yeast two-hybrid system.

**Q.** Which “ability of double transformant HF7c cells to grow on histidine-deficient medium” value (“ability” below) does the source give for GHTWWTF [Pep#7] here?
**A.** better able to grow on histidine-deficient medium than the other double transformants tested

**Q.** With KPKWAIV [Pep#2] as the substance, how does the “ability” value read?
**A.** unable to grow on histidine-deficient medium

**Q.** KPMWWHF [Pep#9] was tested. Which “ability” value did it give?
**A.** better able to grow on histidine-deficient medium than the other double transformants tested

**Q.** LPPWAAF [Pep#6] was tested. Which “ability” value did it give?
**A.** better able to grow on histidine-deficient medium than the other double transformants tested

**Q.** SAPWWTF [Pep#5] was tested. Which “ability” value did it give?
**A.** better able to grow on histidine-deficient medium than those which expressed chimeric proteins having an amino acid sequence identified in Table 2 as Pep#1 (SEQ ID NO: 16), Pep#8 (SEQ ID NO: 17), or Pep#10 (SEQ ID NO: 18)

**Q.** With SWWSFTP [Pep#1] as the substance, how does the “ability” value read?
**A.** able to grow on histidine-deficient medium

**Q.** TTWWWQF [Pep#4] was tested. Which “ability” value did it give?
**A.** better able to grow on histidine-deficient medium than those which expressed chimeric proteins having an amino acid sequence identified in Table 2 as Pep#1 (SEQ ID NO: 16), Pep#8 (SEQ ID NO: 17), or Pep#10 (SEQ ID NO: 18)

**Q.** Which “ability” value does the source give for WHDFPLV [Pep#3] here?
**A.** better able to grow on histidine-deficient medium than the other double transformants tested

**Q.** WHSFPDS [Pep#10] was tested. Which “ability” value did it give?
**A.** able to grow on histidine-deficient medium

**Q.** For WHSFPPP [Pep#8], which “ability” value is on record?
**A.** able to grow on histidine-deficient medium
